Assay results reported in ChEMBL document CHEMBL1150210, “Metabolism of the Catharanthus alkaloids: from Streptomyces griseus to monoamine oxidase B” (J Nat Prod, 1992).

Experiment: Drug level in mouse liver mitochondria
Assay type: ADME
Conditions: in vivo

Drug uptake: 18.7%
SMILES: CC[C@]1(O)C[C@@H]2CN(CCc3c([nH]c4ccccc34)[C@@](C(=O)OC)(c3cc4c(cc3OC)N(C)[C@H]3[C@@](O)(C(=O)OC)[C@H](OC(C)=O)[C@]5(CC)C=CCN6CC[C@]43[C@@H]65)C2)C1 [VINBLASTINE]
